In US8420696B2, “Use of low-dose ladostigil for neuroprotection” (priority 2005, dated 2013):

Columns and labels:
[1] = tested on: cultured neuronal cells; settings: low concentrations; cited from earlier work
[2] = tested on: microglia and astrocytes; assay: Example 2: microglia and astrocyte activation at cannula penetration site after icv STZ; assay type: in vivo, Sprague-Dawley rats
Experimental: (§1) Male Sprague-Dawley rats (63) weighing 320-340 g, aged 4 months, were anesthetized by an intraperitoneal injection of Equithesin 0.3 ml/kg. STZ (0.5 mg) dissolved in 2 μl artificial cerebrospinal fluid (CSF) was injected into each lateral ventricle of 45 rats. The stereotaxic co-ordinates for icv injection were: 0.9 mm posterior, 1.8 mm lateral and 3.8 mm ventral from the bregma level. Control rats (18) received a bilateral injection of 2 μl artificial CSF. STZ-injected rats (25) were given ladostigil (1 mg/kg of the hemitartrate salt/day) orally in a volume of (1 ml/kg) from one week before, until 1 or 8 weeks after icv STZ. The remaining 20 rats received 1 ml/kg water. The rats were housed two per cage with free access to food and water until the behavioral, enzymatic and cytochemical measurements were completed.
One week after icv injection, 8 rats injected with icv CSF, 7 rats given STZ alone, and 7 treated with ladostigil were anesthetized with sodium pentobarbitone, perfused transcardially and the brains processed for immunocytochemistry. […]
Nitrotyrosine, (NT) a marker of nitrative/oxidative stress, was stained with rabbit anti-nitrotyrosine from Upstate (Lake Placid, N.Y., USA), diluted 1:100 followed by the secondary donkey anti-rabbit conjugated with horseradish peroxidase from Chemicon (Temecula, Calif., USA), was diluted 1:200. […] Images were obtained by bright field microscopy and quantitative assessments of appropriate markers were made using AnalySIS software. […]
Three distinct zones were distinguished in the vicinity of the cortical injection site after icv STZ injection containing astrocytes and microglia with differing morphology. Quantification of microglia and astrocytes in the three zones was made in sections sampled in a range of P0.2-0.8 mm from the bregma. The area of each zone containing the different types of astrocytes was measured and the percentage that each zone occupied in the wound area was calculated (Statistica software, StatSoft, USA). The classes of microglia were counted separately in each zone. […]

[3] = tested on: rats injected icv with STZ (spatial memory); assay: Morris water maze spatial memory after icv STZ; assay type: in vivo, Sprague-Dawley rats; settings: icv STZ + chronic ladostigil 1 mg/kg vs icv STZ only
Experimental: as §1, with “completed. […]” for “completed.”
Group means of 3 measures in the object and place recognition tests, duration of exploration in first and second phases and discrimination index were submitted to one way ANOVA. Mean daily escape latencies for trial 1 and trial 2 in the MWM in each group were analyzed by repeated measures ANOVA for DAY and GROUP followed by Duncan's post hoc test where appropriate. Histological data were analyzed by univariate ANOVA followed by Duncan's post hoc test. […]

[4] = tested on: cultured microglia; assay: Release of NO from cultured microglia induced by LPS; assay type: cell-based; settings: concentrations of 0.1-10 μM; preliminary data
Experimental: It is therefore likely that the neuroprotective effect of ladostigil resulted from other actions of the drug. These could include a direct effect on microglia as shown in preliminary data from experiments in our laboratory in which concentrations of 0.1-10 μM reduced by 20-40% the release of NO from cultured microglia induced by LPS. These concentrations are too low to inhibit ChE in microglia.

[5] = target: T1, butyrylcholinesterase (BuChE) (Rattus norvegicus, UniProt Q9JKC1); assay: Example 2: BuChE activity in cortex and hippocampus after ladostigil treatment; assay type: in vivo, rats; settings: chronic 1 mg/kg
T1 construct: from tissue; host or cells: cortex and hippocampus homogenates of dosed Sprague-Dawley rats
T1 sequence (Q9JKC1 24-597): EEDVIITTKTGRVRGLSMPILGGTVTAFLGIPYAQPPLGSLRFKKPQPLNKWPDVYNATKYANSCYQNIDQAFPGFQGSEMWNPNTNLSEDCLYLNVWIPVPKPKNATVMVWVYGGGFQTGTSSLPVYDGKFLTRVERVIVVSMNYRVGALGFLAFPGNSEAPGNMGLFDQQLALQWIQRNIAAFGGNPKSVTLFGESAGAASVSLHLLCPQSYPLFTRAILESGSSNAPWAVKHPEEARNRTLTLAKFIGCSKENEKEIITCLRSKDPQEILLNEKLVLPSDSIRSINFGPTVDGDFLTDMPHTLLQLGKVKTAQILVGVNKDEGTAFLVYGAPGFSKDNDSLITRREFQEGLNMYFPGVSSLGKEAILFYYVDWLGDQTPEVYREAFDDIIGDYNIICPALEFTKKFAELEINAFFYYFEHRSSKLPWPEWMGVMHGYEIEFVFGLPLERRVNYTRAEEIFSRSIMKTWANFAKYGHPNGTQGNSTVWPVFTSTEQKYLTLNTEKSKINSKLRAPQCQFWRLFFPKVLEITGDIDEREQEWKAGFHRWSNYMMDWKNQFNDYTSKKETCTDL
Experimental: The effect of chronic ladostigil treatment on ChE activity in the cortex and hippocampus of rats was determined one week after icv STZ in 12 rats (3 treated with water and 9 with ladostigil). The effect of acute treatment with ladostigil 1 or 17 mg/kg was determined 2 hrs after drug administration. […] The brain was rapidly removed, washed with saline on ice and the cortex, hippocampus and striatum dissected out, quickly weighed and stored at −70° C. until assay. Total ChE activity in the cortex and hippocampus was measured as described in Wang et al., Gender differences in the effect of rivastigmine on brain cholinesterase activity and cognitive function in rats, Neuropharmacology (2000) 39:497-506, using the spectrophotometric method of Ellman et al., A new and rapid colorimetric determination of acetylcholinesterase activity, Biochem. Pharmacol. (1961) 7:88-95 with acetylthiocholine (Sigma Ltd) as a substrate using homogenate of 100 mg tissue in 1 ml phosphate buffer. To determine only butyrylcholinesterase (BuChE) activity the amounts of tissue/ml of buffer were increased 3-fold and butyrylthiocholine (Sigma Ltd) was used as a substrate. MAO A and B activity was measured in homogenates of striatum as described in Weinstock et al., Limited potentiation of blood pressure response to oral tyramine by brain-selective monoamine oxidase A-B inhibitor, TV-3326 in conscious rabbits, Neuropharmacology (2002) 43:999-1005.

C#CCN[C@@H]1CCc2ccc(OC(=O)N(C)CC)cc21 [ladostigil, R(+)-6-(N-methyl,N-ethyl-carbamoyloxy)-N′-propargyl-1-aminoindan]
Cytotoxicity induced by ROS and NO in cultured neuronal cells [1]: prevent cytotoxicity | Changes in microglia and astrocytes in zones i) and iii) resulting from icv STZ ([2]; 1 mg/kg/day hemitartrate orally, seven days after icv STZ): prevented the changes | Density of fibrous microglia in zone ii) ([2]; 1 mg/kg/day orally, seven days after icv STZ): no effect | Scar morphology at cannula penetration site ([2]; eight weeks after icv STZ, with or without ladostigil): No differences | Escape latency in Morris water maze, trial 1, means over 5 days [3]: rats given icv STZ only had significantly higher latencies than those injected with CSF or STZ and treated with ladostigil | Reduction of the release of NO from cultured microglia induced by LPS [4]: 20-40% | BuChE (%) inhibition ([5]; Cortex, 60 min): 16.2 ± 2.5 % | BuChE (%) inhibition ([5]; Cortex, 120 min): 15.7 ± 3.2 % | BuChE (%) inhibition ([5]; Hippocampus, 60 min): 7.3 ± 2.5% | BuChE (%) inhibition ([5]; Hippocampus, 120 min): 5.4 ± 2.8% | Inhibition of BuChE in the hippocampus [5]: no significant inhibition | Inhibition of BuChE in the cortex ([5]; seven days after icv STZ, 1 or 2 hrs after the last dose): 16%
